Assay results published in patent US20090054500A1, “Composition and methods useful in preventing cardiac hypertrophy” (The Brigham and Women's Hospital, Inc., priority 2005, published 2009).
Where “and” joins values, the source holds several entries; their conditions need not be identical. Equal entries are not always repeated. Where two headings read alike, the source gives them in different places.

Columns and labels:
mouse cardiomyoctes = system: mouse cardiomyoctes
Protocol: Cell hypertrophy was determined by the incorporation of ^3H-leucine.

cardiomyocytes = cardiomyocytes in vitro
[1] = system: gridlock phenotype associated with mutations in the CHF1 gene in zebrafish; details: Peterson, et al., Nat. Biotechnol. 22:595-599 (2004); cited from earlier work
VEGF = details: Peterson, et al., Nat. Biotechnol. 22:595 (2004); cited from earlier work

COc1ccc(SCCc2ccncc2)cc1.Cl [GS4012, 4-(2-(4-Methoxyphenylsulfanyl)ethyl)pyridine, HCl]
incorporation of 3H-leucine (cell hypertrophy), mean (mouse cardiomyoctes; Table 2, GS4012 + FCS, mean of 12 tests): 340.5825 counts per minute | incorporation of 3H-leucine (cell hypertrophy), mean (mouse cardiomyoctes; Table 2, GS4012, no FCS, mean of 12 tests): 397.6667 counts per minute | incorporation of 3H-leucine (cell hypertrophy), mean (mouse cardiomyoctes; Table 3, WT, GS4012 2.5 μg/ml, no FCS, mean of 8 tests, HCl): 329.4 counts per minute and 329.37 counts per minute | incorporation of 3H-leucine (cell hypertrophy), mean (mouse cardiomyoctes; Table 3, WT, GS4012 + FCS, mean of 8 tests, HCl): 419.7925 counts per minute and 419.8 counts per minute | FCS induction of cardiomyocyte proliferation when GS4012 was present (mouse cardiomyoctes; cpm for vehicle+GS4012 compared with vehicle+GS4012+FCS): did not occur | effect on phenylephrine-induced hypertrophy (cardiomyocytes): prevent phenylephrine-induced hypertrophy | effect on gridlock phenotype [1]: suppresses the gridlock phenotype | VEGF and VEGF-mediated vessel formation (VEGF): induces
